Like-named read-outs stand apart in the source and are kept apart here.

The values below come from patent publication US20240122214A1, “COMPOSITIONS, METHOD OF MAKING AND METHOD OF USE THEREOF” (EPC NATURAL PRODUCTS CO., LTD, priority 2014, published 2024).

The conditions of data set [1]: depends on the tested concentration compared with sucrose; cited from earlier work.
Data set [2] deals with glucose transport across the Caco-2 cell monolayer. Put plainly: Glucose transport assay in Caco-2 trans-well model (Example 1). Type of data set: cell-based. The following applies: Homo sapiens, 13.5 g/L glucose apical, phloretin 100 mg/L, read-out: Glucose transport compared to untreated control [% of control].
Procedure: Caco-2 cells were seeded on 0.4 μm trans-well inserts for monolayer formation and fast differentiation. On day 5, glucose transport across the cell monolayer was performed. Therefore, cell culture medium containing 13.5 g/L glucose and 1 g/L xylitol with or without the indicated dilutions of extracts or phloretin (100 mg/L) was placed as donor solution onto the apical compartment. Samples were collected from the basolateral compartment (HEPES buffer) after 0, 0.5, 1, 1.5, and 2 hours. Glucose concentrations of the samples were measured by HPLC.
Caco-2 cells were seeded on 0.4 1.tm trans-well inserts for monolayer formation and fast differentiation (enterocyte differentiation medium). On day 5, glucose transport across the cell monolayer was performed. Therefore, cell culture medium containing 13.5 g/L glucose and 1 g/L xylitol with or without the indicated concentrations of rubusoside plant extract or phloretin was placed as donor solution onto the apical compartment. Samples were collected from the basolateral compartment (HEPES buffer) after 0, 0.5, 1, 1.5, and 2 hours. Glucose and xylitol concentrations of the samples were measured by HPLC. Cell layer integrity was confirmed by TEER measurements (Millicell ERS-2 Voltometer) at each sampling time point.
The subject of data set [3] is Caco-2 cell layers. Put plainly: Caco-2 barrier integrity: TEER and xylitol passage (Example 2). In kind it is cell-based, Human. The following applies: 1 g/L xylitol reference.
Procedure: Caco-2 cells were seeded on 0.4 μm trans-well inserts for monolayer formation and fast differentiation. […] Therefore, cell culture medium containing 13.5 g/L glucose and 1 g/L xylitol with or without the indicated concentrations of rubusoside plant extract or phloretin was placed as donor solution onto the apical compartment. The effect on barrier integrity was analyzed by measuring TEER after 0, 0.5, 1, 1.5, 2 and 3 hours (Panels A, C and E) and by including xylitol as a reference substance for the paracellular permeability of the cell layer (Panels B, D and F). Xylitol concentrations of the samples taken were measured by HPLC. Error bars are based on the standard error of the mean (n=2).
Caco-2 (165,000 cells/insert) cells were seeded on 0.4 μm trans-well inserts for monolayer formation and fast differentiation (enterocyte differentiation medium). […] Briefly, cell culture medium containing 13.5 g/L glucose and 1 g/L xylitol with or without the indicated concentrations of rubusoside plant extract or phloretin was placed as donor solution onto the apical compartment. Samples were collected from the basolateral compartment (HEPES buffer) after 0, 0.5, 1, 1.5, 2 and 3 hours. Glucose and xylitol concentrations of the samples were measured by HPLC. Cell layer integrity was confirmed by TEER measurements (Millicell ERS-2 Voltometer) at each sampling time point.
In data set [4] the test system is glucose transport across the Caco-2 cell monolayer. Kind of data set: Glucose transport assay in Caco-2 trans-well model (Example 2). Type of data set: cell-based, Human. The following applies: 0-3 h, result in words.
Procedure: Caco-2 cells were seeded on 0.4 μm trans-well inserts for monolayer formation and fast differentiation. On day 5, glucose transport across the cell monolayer was performed. […] Samples were collected from the basolateral compartment (HEPES buffer) after 0, 0.5, 1, 1.5, 2 and 3 hours. Glucose concentrations of the samples were measured by HPLC. […] Error bars are based on the standard error of the mean (n=2). *p<0.05 indicates a significant difference from the control (two-way ANOVA, Tukey's multiple comparison test).
Caco-2 (165,000 cells/insert) cells were seeded on 0.4 μm trans-well inserts for monolayer formation and fast differentiation (enterocyte differentiation medium). On day 5, glucose transport across the cell monolayer was performed. […] Samples were collected from the basolateral compartment (HEPES buffer) after 0, 0.5, 1, 1.5, 2 and 3 hours. Glucose and xylitol concentrations of the samples were measured by HPLC. Cell layer integrity was confirmed by TEER measurements (Millicell ERS-2 Voltometer) at each sampling time point.

In the case of `OC[C@H]1O[C@H](O[C@]2(CCl)O[C@H](CCl)[C@@H](O)[C@@H]2O)[C@H](O)[C@@H](O)[C@H]1Cl` [sucralose], the “times sweeter than sucrose” value in data set [1] is “about 600 times”. For `O=C(CCc1ccc(O)cc1)c1c(O)cc(O)cc1O` [Phloretin, phloretin], the activity at 100 µg/mL in data set [2] (0.5 h) came to 36%; in data set [2] (1.0 h), 54%. In data set [3], the “xylitol permeability of treated cell layers” value is “highest”. Moreover, in data set [4], the “inhibitory effect on glucose transport” value is on record as “strongly reduced glucose absorption”.

As to thaumatin, in data set [1], the “times sweeter than sucrose” value was “about 2000 times”.

`O=S(=O)([O-])NC1CCCCC1.[Na+]` [sodium cyclamate]: in data set [1], the “times sweeter than sucrose” value is on record as “about 30 times”.
